Measurements published in US7399638B2, “Prediction method for lipidosis” (Takeda Pharmaceutical Company Limited, priority 2003, dated 2008).
Like-named read-outs stand apart in the source and are kept apart here. Marks after values point to notes of the source that are not given here.

Assays:
Crj: CD(SD)IGS rats [1] = conditions: male, rat, in vivo, 3 days
Description: (§1) The following 10 kinds of commercially available drugs were examined as the test compounds for a potential of inducing PLsis by histopathological examination and peripheral blood lymphocyte testing.
(§2) The following experiments were performed using the prematurely autopsied animals.
(§3) The high-dose dosing suspension was diluted about 3 fold and 10 fold with dispersant/solvent to prepare intermediate- and low-dose dosing suspensions. […] [For LD50, the Summary Basis of Approval (FDA) for each drug was referenced to.]
(§4) The animals were examined for mortality, general conditions, body weight, food consumption and the like using PM4800 (Mettler) and EB3200D (Shimadzu Corporation).
Hematological examination was performed for parameters such as RBC count, hematocrit, hemoglobin concentration, mean corpuscular hemoglobin (MCH), mean corpuscular hemoglobin concentration (MCHC), mean corpuscular volume (MCV), platelet count, WBC count, reticulocyte count, differential WBC, and vacuolated lymphocyte ratio (for PLsis-inducing compounds only) using ADVIA120 (Bayer Medical Ltd.) and E-4000 (Sysmex Corporation).

Crj: CD(SD)IGS rats [2] = conditions: rat, in vivo
Description: as §1, §2, §3, §4

Crj: CD(SD)IGS rats [3] = assay: Urinary PAG/hippuric acid ratio by 1H NMR in rats; conditions: rat urine; for PAG + hippuric acid/creatinine / PAG/PAG + hippuric acid / PAG/creatinine (first term of PAG + hippuric acid) / PAG/hippuric acid / hippuric acid/creatinine (second term of PAG + hippuric acid): 3 days, mean n = 3-4
Description: During the urine pooling, the collecting vessels were kept in an ice-cooled condition. After the urine collection, the urine was centrifuged at 1500×g for 10 minutes, and not less than 1 mL of the supernatant was collected and stored under freezing (below −70° C.) in a microtube in an ultralow-temperature freezer until the measurement. For the negative control group, 24-hour pooled urine was collected under ice cooling; after the urine collection, the urine was stored at −30° C. until the measurement.

male cynomolgus monkeys [4] = conditions: cynomolgus monkey, in vivo
Description: Amiodarone and perhexiline were purchased from SIGMA Company.
(§5) Subsequently, the animals were allocated to four groups (5 animals in total) comprising 2 animals in the control group and 1 male in each treatment group, respectively.
(§6) The high-dose dosing suspension was diluted with the dispersant/solvent to prepare a low-dose dosing suspension.
After completion of the administration, livers, kidneys, hearts, spleens, lungs, mesenteric lymph nodes, eyeballs, testes and brains were collected from all animals, and examined for histopathological changes by conventional method of optical microscopy. Additionally, blood samples were collected in the pre-dosing period, on the first day of administration, and on days 2 and 6 of treatment period, blood smear specimens were prepared, and vacuolated lymphocyte ratios were determined.

male cynomolgus monkeys [5] = assay: Urinary PAGN/hippuric acid ratio by 1H NMR in monkeys; type: in vivo, cynomolgus monkey; conditions: for Urinary PAGN/hippuric acid ratio: male cynomolgus monkey, 60 mg/kg/day by gavage for 7 days
Description: as §5, §6
Pooled urine was collected from the monkeys in the Example above under fasting for about 6 hours in the pre-dosing period (Pre), on the first day of administration (Day 0), and on days 2 and 6 of treatment period (Days 2 and 6).
^1H NMR was performed as described below. Reagents were used without purification. Heavy water (D2O) was purchased from ISOTEC. […] INC (USA).
A phosphate buffer solution was prepared as described below.
Operating conditions were set as shown below.

[6] = from Summary Basis of Approval (FDA); species and route not given; cited from earlier work

## CNCCC(Oc1ccc(C(F)(F)F)cc1)c1ccccc1 (centres unmarked) [Fluoxetine, fluoxetine]
Crj: CD(SD)IGS rats [1]; 30 mg/kg/day
  Mean vacuolated lymphocyte ratio: 7%
Crj: CD(SD)IGS rats [1]; 100 mg/kg/day
  Mean vacuolated lymphocyte ratio: 28%
Crj: CD(SD)IGS rats [1]; 300 mg/kg/day
  Mean vacuolated lymphocyte ratio: 31%
Crj: CD(SD)IGS rats [2]; 30 mg/kg/day
  Histopathological changes (PLsis): Liver: +
  Histopathological changes (PLsis): Lung: +
  Histopathological changes (PLsis): Lymph node: +
  Histopathological changes (PLsis): Others: Brain
  Histopathological changes (PLsis): Spleen: −
Crj: CD(SD)IGS rats [2]; 100 mg/kg/day
  Histopathological changes (PLsis): Liver: +
  Histopathological changes (PLsis): Lung: +
  Histopathological changes (PLsis): Lymph node: +
  Histopathological changes (PLsis): Others: Brain
  Histopathological changes (PLsis): Spleen: −
Crj: CD(SD)IGS rats [2]; 300 mg/kg/day
  Histopathological changes (PLsis): Liver: +
  Histopathological changes (PLsis): Lung: +
  Histopathological changes (PLsis): Lymph node: −
  Histopathological changes (PLsis): Others: −
  Histopathological changes (PLsis): Spleen: −
Crj: CD(SD)IGS rats [3]; 30 mg/kg/day by gavage
  PAG + hippuric acid/creatinine: 1.13
  PAG/PAG + hippuric acid: 15.60* %
  PAG/creatinine (first term of PAG + hippuric acid): 0.17
  PAG/hippuric acid: 18.58* %
  hippuric acid/creatinine (second term of PAG + hippuric acid): 0.96
Crj: CD(SD)IGS rats [3]; 100 mg/kg/day by gavage
  PAG + hippuric acid/creatinine: 1.06
  PAG/PAG + hippuric acid: 25.90* %
  PAG/creatinine (first term of PAG + hippuric acid): 0.27
  PAG/hippuric acid: 36.86* %
  hippuric acid/creatinine (second term of PAG + hippuric acid): 0.79
Crj: CD(SD)IGS rats [3]; 300 mg/kg/day by gavage
  PAG + hippuric acid/creatinine: 0.67*
  PAG/PAG + hippuric acid: 31.88* %
  PAG/creatinine (first term of PAG + hippuric acid): 0.20
  PAG/hippuric acid: 56.32* %
  hippuric acid/creatinine (second term of PAG + hippuric acid): 0.47

## CCCCc1oc2ccccc2c1C(=O)c1cc(I)c(OCCN(CC)CC)c(I)c1 [Amiodarone]
Crj: CD(SD)IGS rats [2]; 100 mg/kg/day
  Histopathological changes (PLsis): Liver: −
  Histopathological changes (PLsis): Lung: −
  Histopathological changes (PLsis): Lymph node: −
  Histopathological changes (PLsis): Others: −
  Histopathological changes (PLsis): Spleen: −
Crj: CD(SD)IGS rats [2]; 300 mg/kg/day
  Histopathological changes (PLsis): Liver: −
  Histopathological changes (PLsis): Lung: +
  Histopathological changes (PLsis): Lymph node: +
  Histopathological changes (PLsis): Others: −
  Histopathological changes (PLsis): Spleen: −
Crj: CD(SD)IGS rats [2]; 1000 mg/kg/day
  Histopathological changes (PLsis): Liver: −
  Histopathological changes (PLsis): Lung: +
  Histopathological changes (PLsis): Lymph node: +
  Histopathological changes (PLsis): Others: −
  Histopathological changes (PLsis): Spleen: +
Male cynomolgus monkeys [4]; 60 mg/kg
  induction of PLsis/steatosis: not observed
Male cynomolgus monkeys [4]; 300 mg/kg
  histopathological changes in any target organ: observed

## C1CCC(C(CC2CCCCN2)C2CCCCC2)CC1 (centres unmarked) [Perhexiline, perhexiline]
Crj: CD(SD)IGS rats [1]; 60 mg/kg/day
  Mean vacuolated lymphocyte ratio: 2%
Crj: CD(SD)IGS rats [1]; 200 mg/kg/day
  Mean vacuolated lymphocyte ratio: 4%
Crj: CD(SD)IGS rats [1]; 600 mg/kg/day
  Mean vacuolated lymphocyte ratio: 52%
Crj: CD(SD)IGS rats [2]; 60 mg/kg/day
  Histopathological changes (PLsis): Liver: −
  Histopathological changes (PLsis): Lung: −
  Histopathological changes (PLsis): Lymph node: −
  Histopathological changes (PLsis): Others: −
  Histopathological changes (PLsis): Spleen: −
Crj: CD(SD)IGS rats [2]; 200 mg/kg/day
  Histopathological changes (PLsis): Liver: −
  Histopathological changes (PLsis): Lung: +
  Histopathological changes (PLsis): Lymph node: +
  Histopathological changes (PLsis): Others: −
  Histopathological changes (PLsis): Spleen: −
Crj: CD(SD)IGS rats [2]; 600 mg/kg/day
  Histopathological changes (PLsis): Liver: −
  Histopathological changes (PLsis): Lung: +
  Histopathological changes (PLsis): Lymph node: +
  Histopathological changes (PLsis): Others: −
  Histopathological changes (PLsis): Spleen: +
Male cynomolgus monkeys [5]; cynomolgus monkey urine, 60 mg/kg, gavage 7 days
  PAGN/hippuric acid ratio compared to the control group: increased
Male cynomolgus monkeys [5]; Day 0, 1 animal
  Urinary PAGN/hippuric acid ratio: 2.17
Male cynomolgus monkeys [5]; Day 2, 1 animal
  Urinary PAGN/hippuric acid ratio: 1.43
Male cynomolgus monkeys [5]; Day 6, 1 animal
  Urinary PAGN/hippuric acid ratio: ↑12.89
Male cynomolgus monkeys [5]; Pre (pre-dosing period), 1 animal
  Urinary PAGN/hippuric acid ratio: 1.10
Male cynomolgus monkeys [4]; 60 mg/kg
  histopathological changes in any target organ: observed
  vacuolated lymphocyte ratio: increase
Crj: CD(SD)IGS rats [3]; 60 mg/kg/day by gavage
  PAG + hippuric acid/creatinine: 1.47
  PAG/PAG + hippuric acid: 10.16%
  PAG/creatinine (first term of PAG + hippuric acid): 0.15
  PAG/hippuric acid: 11.39%
  hippuric acid/creatinine (second term of PAG + hippuric acid): 1.31
Crj: CD(SD)IGS rats [3]; 200 mg/kg/day by gavage
  PAG + hippuric acid/creatinine: 1.52
  PAG/PAG + hippuric acid: 15.59* %
  PAG/creatinine (first term of PAG + hippuric acid): 0.24
  PAG/hippuric acid: 18.49%
  hippuric acid/creatinine (second term of PAG + hippuric acid): 1.28
Crj: CD(SD)IGS rats [3]; 600 mg/kg/day by gavage
  PAG + hippuric acid/creatinine: 0.75*
  PAG/PAG + hippuric acid: 45.67* %
  PAG/creatinine (first term of PAG + hippuric acid): 0.31
  PAG/hippuric acid: 146.97* %
  hippuric acid/creatinine (second term of PAG + hippuric acid): 0.44

## CN(C)CCCN1c2ccccc2Sc2ccc(Cl)cc21 [Chlorpromazine, chlorpromazine]
Crj: CD(SD)IGS rats [1]; 100 mg/kg/day
  Mean vacuolated lymphocyte ratio: 2%
Crj: CD(SD)IGS rats [1]; 300 mg/kg/day
  Mean vacuolated lymphocyte ratio: 2%
Crj: CD(SD)IGS rats [1]; 1000 mg/kg/day
  Mean vacuolated lymphocyte ratio: 1%
Crj: CD(SD)IGS rats [2]
  PLsis positivity by histopathological examination or vacuolated lymphocyte testing: could not be determined
Crj: CD(SD)IGS rats [2]; 100 mg/kg/day
  Histopathological changes (PLsis): Liver: −
  Histopathological changes (PLsis): Lung: −
  Histopathological changes (PLsis): Lymph node: −
  Histopathological changes (PLsis): Others: −
  Histopathological changes (PLsis): Spleen: −
Crj: CD(SD)IGS rats [2]; 300 mg/kg/day
  Histopathological changes (PLsis): Liver: −
  Histopathological changes (PLsis): Lung: −
  Histopathological changes (PLsis): Lymph node: −
  Histopathological changes (PLsis): Others: −
  Histopathological changes (PLsis): Spleen: −
Crj: CD(SD)IGS rats [2]; 1000 mg/kg/day
  Histopathological changes (PLsis): Liver: −
  Histopathological changes (PLsis): Lung: −
  Histopathological changes (PLsis): Lymph node: −
  Histopathological changes (PLsis): Others: −
  Histopathological changes (PLsis): Spleen: −
[6]
  LD50: 145 mg/kg
Crj: CD(SD)IGS rats [3]; 100 mg/kg/day by gavage
  PAG + hippuric acid/creatinine: 1.45
  PAG/PAG + hippuric acid: 12.80%
  PAG/creatinine (first term of PAG + hippuric acid): 0.18
  PAG/hippuric acid: 14.93%
  hippuric acid/creatinine (second term of PAG + hippuric acid): 1.27
Crj: CD(SD)IGS rats [3]; 300 mg/kg/day by gavage
  PAG + hippuric acid/creatinine: 1.63
  PAG/PAG + hippuric acid: 12.57%
  PAG/creatinine (first term of PAG + hippuric acid): 0.21
  PAG/hippuric acid: 14.51%
Crj: CD(SD)IGS rats [3]; 1000 mg/kg/day by gavage
  PAG + hippuric acid/creatinine: 0.86*
  PAG/PAG + hippuric acid: 42.20* %
  PAG/creatinine (first term of PAG + hippuric acid): 0.30
  PAG/hippuric acid: 104.13* %
  hippuric acid/creatinine (second term of PAG + hippuric acid): 0.56
Crj: CD(SD)IGS rats [3]; high-dose administration group, 3-day administration
  PAG/hippuric acid ratio or PAG/(PAG+hippuric acid) ratio: remarkable increase
